Measured values published in patent US20050171192A1, “Use of histamine to treat bone disease” (priority 2003, published 2005).
Where two headings read alike, the source gives them in different places.

Legend:
[1] = target: membrane bound oxidase of stimulated phagocytes (Homo sapiens, UniProt P04839); settings: substrate of the membrane bound oxidase; generally accepted (background); cited from earlier work
[2] = Example 1: inhibition of bone resorption in subjects with bone loss; assay type: in vivo; settings: effective dose; Groups 1 through 10 compared to placebo Group 11
Description: Subjects suffering from bone loss exacerbated by osteoclast-produced ROS are identified. The subjects are separated into 11 groups of 10 subjects each. […] Subjects in Group 11 are administered a placebo.

[3] = Example 7: bone loss associated with cancer treatments (hormone therapy); assay type: in vivo; settings: oral 100 mg in conjunction with hormone therapy; compared to placebo group
Description: Individuals suffering from cancer and being treated with hormone therapy are identified. The individuals are divided into 11 groups of 10 each. In conjunction with hormone therapy, Groups 1 through 10 are orally administered 100 mg of histamine, histamine agonists, histamine salts, histamine prodrugs, NADPH-oxidase inhibitors, histamine dihydrochloride, histamine phosphate, serotonin, 5HT agonists, or histamine receptor agonists, respectively. Group 11 receives a placebo in conjunction with hormone therapy.

[4] = oral 125 mg; versus placebo
Description: Individuals suffering from bone loss associated with primary and secondary hyperparathyroidism are identified. The individuals are orally administered 125 mg of histamine or a placebo.

[5] = oral 50 mg, 100 mg, 200 mg, 1,000 mg; relative to placebo group
Description: Individual suffering from various types of osteoporosis, including type I and type II osteoporosis, age-related osteoporosis, disuse osteoporosis, diabetes-related osteoporosis, and steroid-related osteoporosis, are identified. The individuals are separated into 5 groups of 20 individuals. Individuals in Groups 1 through 4 are orally administered 50 mg, 100 mg, 200 mg, and 1,000 mg of histamine, respectively. Individuals in […] are administered a placebo. The rate of bone loss is reduced for Groups 1 through 4 relative to the rate of bone loss for the placebo group.

[6] = intravenous 5 mg in conjunction with steroid therapy; compared to steroid therapy alone
Description: Individuals suffering from bone loss associated with steroid therapy, including treatment with corticosteroids, such as betamethasone, budesonide, cortisone dexamethasone, hydrocortisone, methylprednisolone, prednisolone, prednisone, and triamcinolone, are identified. In conjunction with steroid therapy, the individuals are intravenously administered 5 mg of a ROS scavenger or a placebo.

[7] = oral 75 mg in conjunction with antibiotics; versus antibiotics alone
Description: Individuals suffering from osteomyelitis are identified. The individuals are orally administered 75 mg of histamine phosphate in conjunction with antibiotics or antibiotics alone.

**Q.** With NC(=O)C1=CN([C@@H]2O[C@H](COP(=O)(O)OP(=O)(O)OC[C@H]3O[C@@H](n4cnc5c(N)ncnc54)[C@H](OP(=O)(O)O)[C@@H]3O)[C@@H](O)[C@H]2O)C=CC1 [NADPH] as the compound, how does the Km [1] read?
**A.** 45 µM

**Q.** With NCCc1c[nH]cn1 [histamine] as the compound, how does the “rate of bone healing” value [2] read?
**A.** accelerated

**Q.** What about the “rate of bone loss” value [2] of the same compound?
**A.** reduced

**Q.** What about the bone healing [3] of the same compound?
**A.** accelerated

**Q.** And the bone loss [3]?
**A.** inhibited

**Q.** What about the “rate of bone loss” value [4] of the same compound?
**A.** reduced

**Q.** And the “trauma to bone cells” value [4]?
**A.** minimized

**Q.** And the “rate of bone loss” value [5]?
**A.** reduced

**Q.** For NCCc1c[nH]c2ccc(O)cc12 [serotonin], which “rate of bone healing” value [2] is on record?
**A.** accelerated

**Q.** What about the “rate of bone loss” value [2] of the same compound?
**A.** reduced

**Q.** What about the bone healing [3] of the same compound?
**A.** accelerated

**Q.** And the bone loss [3]?
**A.** inhibited

**Q.** With NC(=O)C1=CN([C@@H]2O[C@H](COP(=O)(O)OP(=O)(O)OC[C@H]3O[C@@H](n4cnc5c(N)ncnc54)[C@H](O)[C@@H]3O)[C@@H](O)[C@H]2O)C=CC1 [NADH] as the compound, how does the Km [1] read?
**A.** 450 µM

**Q.** Which “rate of bone healing” value [2] does the source give for Cl.Cl.NCCc1c[nH]cn1 [histamine dihydrochloride] here?
**A.** accelerated

**Q.** What about the “rate of bone loss” value [2] of the same compound?
**A.** reduced

**Q.** And the bone loss [6]?
**A.** reduced

**Q.** And the bone healing [3]?
**A.** accelerated

**Q.** What about the bone loss [3] of the same compound?
**A.** inhibited

**Q.** For NCCc1c[nH]cn1.O=P(O)(O)O [histamine phosphate], which “rate of bone healing” value [2] is on record?
**A.** accelerated

**Q.** And the “rate of bone loss” value [2]?
**A.** reduced

**Q.** What about the bone healing [3] of the same compound?
**A.** accelerated

**Q.** What about the bone loss [3] of the same compound?
**A.** inhibited

**Q.** What about the bone healing [7] of the same compound?
**A.** accelereated
